In ChEMBL document CHEMBL4725331, “An investigative study of antitumor properties of a novel thiazolo[4,5-d]pyrimidine small molecule revealing superior antitumor activity with CDK1 selectivity and potent pro-apoptotic properties” (Bioorg Med Chem, 2020):

Assays:
SN12C = assay: Antiproliferative activity against human SN12C cells assessed as inhibition of cell growth at 10 uM measured after 48 hrs by SRB assay relative to control; format: functional
CCRF-CEM = assay: Antiproliferative activity against human CCRF-CEM cells assessed as inhibition of cell growth measured after 48 hrs by SRB assay; format: functional
786-0 = assay: Antiproliferative activity against human 786-0 cells assessed as inhibition of cell growth measured after 48 hrs by SRB assay; format: functional
HCT-15 [1] = assay: Antiproliferative activity against human HCT-15 cells assessed as inhibition of cell growth measured after 48 hrs by SRB assay; format: functional
HOP-92 = assay: Antiproliferative activity against human HOP-92 cells assessed as inhibition of cell growth measured after 48 hrs by SRB assay; format: functional
OVCAR-4 = assay: Antiproliferative activity against human OVCAR-4 cells assessed as inhibition of cell growth measured after 48 hrs by SRB assay; format: functional
OVCAR-5 = assay: Antiproliferative activity against human OVCAR-5 cells assessed as inhibition of cell growth measured after 48 hrs by SRB assay; format: functional
SK-MEL-2 = assay: Antiproliferative activity against human SK-MEL-2 cells assessed as inhibition of cell growth measured after 48 hrs by SRB assay; format: functional
HCT-15 [2] = assay: Antiproliferative activity against human HCT-15 cells assessed as inhibition of cell growth at 10 uM measured after 48 hrs by SRB assay relative to control; format: functional
RPMI-8226 [3] = assay: Antiproliferative activity against human RPMI-8226 cells assessed as inhibition of cell growth measured after 48 hrs by SRB assay; format: functional
MDA-MB-468 = assay: Antiproliferative activity against human MDA-MB-468 cells assessed as inhibition of cell growth measured after 48 hrs by SRB assay; format: functional
ACHN = assay: Antiproliferative activity against human ACHN cells assessed as inhibition of cell growth at 10 uM measured after 48 hrs by SRB assay relative to control; format: functional
BT-549 = assay: Antiproliferative activity against human BT-549 cells assessed as inhibition of cell growth measured after 48 hrs by SRB assay; format: functional
EKVX = assay: Antiproliferative activity against human EKVX cells assessed as inhibition of cell growth at 10 uM measured after 48 hrs by SRB assay relative to control; format: functional
HCT-116 [4] = assay: Induction of apoptosis in human HCT116 cells assessed as increase in Bax gene expression by RT-PCR analysis relative to untreated control; format: functional
RPMI-8226 [5] = assay: Antiproliferative activity against human RPMI-8226 cells assessed as inhibition of cell growth at 10 uM measured after 48 hrs by SRB assay relative to control; format: functional
K562 [6] = assay: Antiproliferative activity against human K562 cells assessed as inhibition of cell growth at 10 uM measured after 48 hrs by SRB assay relative to control; format: functional
SF-539 = assay: Antiproliferative activity against human SF-539 cells assessed as inhibition of cell growth at 10 uM measured after 48 hrs by SRB assay relative to control; format: functional
WI-38 = assay: Induction of apoptosis in human WI-38 cells assessed as necrotic cells at IC50 incubated for 48 hrs by annexin-V FITC and propidium iodide staining based flow cytometry analysis (reference value: 0.39 %); format: cell-based; details: wi-38, 48 h
MDA-MB-231 = assay: Antiproliferative activity against human MDA-MB-231 cells assessed as inhibition of cell growth measured after 48 hrs by SRB assay; format: functional
MDA-MB-435 = assay: Antiproliferative activity against human MDA-MB-435 cells assessed as inhibition of cell growth measured after 48 hrs by SRB assay; format: functional
NCI-H226 = assay: Antiproliferative activity against human NCI-H226 cells assessed as inhibition of cell growth measured after 48 hrs by SRB assay; format: functional
Malme-3M = assay: Antiproliferative activity against human Malme-3M cells assessed as inhibition of cell growth measured after 48 hrs by SRB assay; format: functional
SK-MEL-5 = assay: Antiproliferative activity against human SK-MEL-5 cells assessed as inhibition of cell growth at 10 uM measured after 48 hrs by SRB assay relative to control; format: functional
T47D = assay: Antiproliferative activity against human T47D cells assessed as inhibition of cell growth measured after 48 hrs by SRB assay; format: functional
K562 [7] = assay: Antiproliferative activity against human K562 cells assessed as inhibition of cell growth measured after 48 hrs by SRB assay; format: functional
IGROV-1 = assay: Antiproliferative activity against human IGROV-1 cells assessed as inhibition of cell growth measured after 48 hrs by SRB assay; format: functional
TK-10 = assay: Antiproliferative activity against human TK-10 cells assessed as inhibition of cell growth at 10 uM measured after 48 hrs by SRB assay relative to control; format: functional
HT-29 = assay: Antiproliferative activity against human HT-29 cells assessed as inhibition of cell growth measured after 48 hrs by SRB assay; format: functional
HCT-116 [8] = assay: Cell cycle arrest in human HCT-116 cells assessed as accumulation in G0/G1 phase at IC50 concentration incubated for 48 hrs by propidium iodide staining based flow cytometry analysis (reference value: 42.5 %); format: functional
SF-295 = assay: Antiproliferative activity against human SF-295 cells assessed as inhibition of cell growth measured after 48 hrs by SRB assay; format: functional
DU-145 = assay: Antiproliferative activity against human DU-145 cells assessed as inhibition of cell growth at 10 uM measured after 48 hrs by SRB assay relative to control; format: functional
SNB-19 = assay: Antiproliferative activity against human SNB-19 cells assessed as inhibition of cell growth at 10 uM measured after 48 hrs by SRB assay relative to control; format: functional
[9] = read-out: LC50 (the source's name)

COc1ccc(-n2c(=S)sc3c(Cl)nc(C)nc32)c(OC)c1
inhibition at 10 µM (SN12C): > 50% | GI50 (CCRF-CEM): 2.69 µM | TGI (CCRF-CEM): 7.41 µM | CC50 (CCRF-CEM; [9]): > 100 µM | GI50 (786-0): 4.47 µM | TGI (786-0): 20.4 µM | CC50 (786-0; [9]): 81.3 µM | GI50 (HCT-15 [1]): 1.95 µM | TGI (HCT-15 [1]): 5.37 µM | CC50 (HCT-15 [1]; [9]): 41.7 µM | GI50 (HOP-92): 2.04 µM | TGI (HOP-92): 8.51 µM | CC50 (HOP-92; [9]): 31.6 µM | GI50 (OVCAR-4): 4.68 µM | TGI (OVCAR-4): 15.5 µM | CC50 (OVCAR-4; [9]): 41.7 µM | GI50 (OVCAR-5): 6.17 µM | TGI (OVCAR-5): 20.9 µM | CC50 (OVCAR-5; [9]): 53.7 µM | GI50 (SK-MEL-2): 2.04 µM | TGI (SK-MEL-2): 3.98 µM | CC50 (SK-MEL-2; [9]): 7.76 µM | inhibition at 10 µM (HCT-15 [2]): > 50% | GI50 (RPMI-8226 [3]): 3.47 µM | TGI (RPMI-8226 [3]): 14.1 µM | CC50 (RPMI-8226 [3]; [9]): > 100 µM | GI50 (MDA-MB-468): 2 µM | TGI (MDA-MB-468): 6.61 µM | CC50 (MDA-MB-468; [9]): 93.3 µM | inhibition at 10 µM (ACHN): > 50% | GI50 (BT-549): 2 µM | TGI (BT-549): 4.27 µM | CC50 (BT-549; [9]): 9.12 µM | inhibition at 10 µM (EKVX): > 50% | fold change (FC) (HCT-116 [4]): 9.9 | inhibition at 10 µM (RPMI-8226 [5]): > 50% | inhibition at 10 µM (K562 [6]): > 50% | inhibition at 10 µM (SF-539): > 50% | Activity (WI-38): 1.41% | GI50 (MDA-MB-231): 3.16 µM | TGI (MDA-MB-231): 10.2 µM | CC50 (MDA-MB-231; [9]): 34.7 µM | GI50 (MDA-MB-435): 2.14 µM | TGI (MDA-MB-435): 3.89 µM | CC50 (MDA-MB-435; [9]): 7.24 µM | GI50 (NCI-H226): 3.24 µM | TGI (NCI-H226): 12 µM | CC50 (NCI-H226; [9]): 44.7 µM | GI50 (Malme-3M): 2.24 µM | TGI (Malme-3M): 6.17 µM | CC50 (Malme-3M; [9]): 27.5 µM | inhibition at 10 µM (SK-MEL-5): > 50% | GI50 (T47D): 6.46 µM | TGI (T47D): 21.9 µM | CC50 (T47D; [9]): 56.2 µM | GI50 (K562 [7]): 1.2 µM | TGI (K562 [7]): 3.8 µM | CC50 (K562 [7]; [9]): > 100 µM | GI50 (IGROV-1): 1.95 µM | TGI (IGROV-1): 3.98 µM | CC50 (IGROV-1; [9]): 8.32 µM | inhibition at 10 µM (TK-10): > 50% | GI50 (HT-29): 2.4 µM | TGI (HT-29): 6.31 µM | CC50 (HT-29; [9]): 57.5 µM | Activity (HCT-116 [8]): 22.42% | GI50 (SF-295): 7.08 µM | TGI (SF-295): 19.9 µM | CC50 (SF-295; [9]): 46.8 µM | inhibition at 10 µM (DU-145): > 50% | inhibition at 10 µM (SNB-19): > 50%
